Data: patent publication US20240218022A1, “ANTI-VISTA MACROCYCLIC PEPTIDES AND COMPOSITIONS” (BRISTOL-MYERS SQUIBB COMPANY, priority 2022, published 2024)
Positions of bridges follow the written chain, without caps; N, C: chain ends. Non-standard residues stand in square brackets, D forms with d. Residues, ends and D or L forms follow the SMILES beside them. Cit = NC(=O)NCCC[C@H](N)C(=O)O; Gly(cPr) = N[C@H](C(=O)O)C1CC1; Ahp(2) = CCCCC[C@H](N)C(=O)O; NMeNle = CCCC[C@H](NC)C(=O)O; Tle = CC(C)(C)[C@H](N)C(=O)O; NHexGly = CCCCCCNCC(=O)O; Nle = CCCC[C@H](N)C(=O)O; Orn = NCCC[C@H](N)C(=O)O

Molecular target: T1, mouse VISTA (mVISTA) (Mus musculus, UniProt Q9D659)
T1 construct: expressed in transfected cells; host or cells: Human embryonic kidney 293T cells
T1 sequence (Q9D659 33-308): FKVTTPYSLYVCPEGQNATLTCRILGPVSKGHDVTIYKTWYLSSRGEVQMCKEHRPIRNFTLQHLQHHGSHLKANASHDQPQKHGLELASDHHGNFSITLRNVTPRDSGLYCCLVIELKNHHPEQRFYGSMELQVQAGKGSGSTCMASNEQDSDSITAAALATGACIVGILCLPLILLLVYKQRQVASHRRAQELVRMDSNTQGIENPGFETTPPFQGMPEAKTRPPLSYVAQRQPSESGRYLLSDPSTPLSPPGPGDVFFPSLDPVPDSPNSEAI
Experiment: Cell-Based Binding High-Content Assay For mVISTA (HC CBA mVISTA)
Conditions: read-out: HC CBA mVISTA IC50
Procedure, shortened: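 293T cells expressing mouse VISTA, with compounds added either after seeding ("no wash") or before seeding and then washed out after 1 h. Biotinylated peptide 2 nM for 30 min at room temperature, then detection with Alexa 647–streptavidin. After fixation with Hoechst stain, plates were high-content imaged; IC50 from four-parameter logistic fit.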

| Structure (SMILES) | IC50 |
| --- | --- |
| CCCCCCN1CC(=O)N[C@@H](Cc2ccc(O)cc2)C(=O)N[C@@H](CCCC)C(=O)N[C@@H](CC(N)=O)C(=O)N[C@@H](CCCNC(=N)N)C(=O)N(C)[C@@H](CCCC)C(=O)N[C@@H](CCCCC)C(=O)N2CCC[C@H]2C(=O)N[C@@H](C2CC2)C(=O)N[C@@H](CO)C(=O)N[C@H](C(=O)NCC(N)=O)CSCC(=O)N[C@@H](Cc2ccccc2)C(=O)N[C@@H](Cc2c[nH]c3ccccc23)C(=O)N[C@@H](CC(=O)O)C1=O [Example 1389] ({CH2CO}-FWD[NHexGly]Y[Nle]NR[NMeNle][Ahp(2)]P[Gly(cPr)]SCG-NH2; thioether N-14) | 34.4 nM |
| CCCCCCN1CC(=O)N[C@@H](Cc2ccc(O)cc2)C(=O)N[C@@H](CCCC)C(=O)N[C@@H](CC(=O)O)C(=O)N[C@@H](CCCN)C(=O)N(C)[C@@H](CCCC)C(=O)N[C@@H](CCCCC)C(=O)N2CCC[C@H]2C(=O)N[C@@H](C(C)(C)C)C(=O)N[C@@H](CC(=O)O)C(=O)N[C@H](C(=O)NCC(N)=O)CSCC(=O)N[C@@H](Cc2ccccc2)C(=O)N[C@@H](Cc2c[nH]c3ccccc23)C(=O)N[C@@H](CC(=O)O)C1=O [Example 1393] ({CH2CO}-FWD[NHexGly]Y[Nle]D[Orn][NMeNle][Ahp(2)]P[Tle]DCG-NH2; thioether N-14) | 17.2 nM |
| CCCCCCN1CC(=O)N[C@@H](Cc2ccc(O)cc2)C(=O)N[C@@H](CCCC)C(=O)N[C@@H](CC(=O)O)C(=O)N[C@@H](CCCN)C(=O)N(C)[C@@H](CCCC)C(=O)N[C@@H](CCCCC)C(=O)N2CCC[C@H]2C(=O)N[C@@H](C(C)(C)C)C(=O)N[C@@H](CC(=O)O)C(=O)N[C@H](C(=O)N[C@@H](CC(N)=O)C(=O)O)CSCC(=O)N[C@@H](Cc2ccccc2)C(=O)N[C@@H](Cc2c[nH]c3ccccc23)C(=O)N[C@@H](CC(=O)O)C1=O [Example 1397] ({CH2CO}-FWD[NHexGly]Y[Nle]D[Orn][NMeNle][Ahp(2)]P[Tle]DCN-OH; thioether N-14) | 36 nM |
| CCCCCCN1CC(=O)N[C@@H](Cc2ccc(O)cc2)C(=O)N[C@@H](CCCC)C(=O)N[C@@H](CC(N)=O)C(=O)N[C@@H](CCCNC(=N)N)C(=O)N(C)[C@@H](CCCC)C(=O)N[C@@H](CCCCC)C(=O)N2CCC[C@H]2C(=O)N[C@@H](C(C)(C)C)C(=O)N[C@@H](CC(=O)O)C(=O)N[C@H](C(=O)N[C@@H](CC(N)=O)C(=O)O)CSCC(=O)N[C@@H](Cc2ccccc2)C(=O)N[C@@H](Cc2c[nH]c3ccccc23)C(=O)N[C@@H](CC(=O)O)C1=O [Example 1398] ({CH2CO}-FWD[NHexGly]Y[Nle]NR[NMeNle][Ahp(2)]P[Tle]DCN-OH; thioether N-14) | 43.9 nM |
| CCCCCCN1CC(=O)N[C@@H](Cc2ccc(O)cc2)C(=O)N[C@@H](CCCC)C(=O)N[C@@H](CC(=O)O)C(=O)N[C@@H](CCCNC(=N)N)C(=O)N(C)[C@@H](CCCC)C(=O)N[C@@H](CCCCC)C(=O)N2CCC[C@H]2C(=O)N[C@@H](C(C)(C)C)C(=O)N[C@@H](CO)C(=O)N[C@H](C(=O)N[C@@H](CC(N)=O)C(=O)O)CSCC(=O)N[C@@H](Cc2ccccc2)C(=O)N[C@@H](Cc2c[nH]c3ccccc23)C(=O)N[C@@H](CC(=O)O)C1=O [Example 1399] ({CH2CO}-FWD[NHexGly]Y[Nle]DR[NMeNle][Ahp(2)]P[Tle]SCN-OH; thioether N-14) | 27.3 nM |
| CCCCCCN1CC(=O)N[C@@H](Cc2ccc(O)cc2)C(=O)N[C@@H](CCCC)C(=O)N[C@@H](CC(N)=O)C(=O)N[C@@H](CCCN)C(=O)N(C)[C@@H](CCCC)C(=O)N[C@@H](CCCCC)C(=O)N2CCC[C@H]2C(=O)N[C@@H](C(C)(C)C)C(=O)N[C@@H](CO)C(=O)N[C@H](C(=O)N[C@@H](CC(N)=O)C(=O)O)CSCC(=O)N[C@@H](Cc2ccccc2)C(=O)N[C@@H](Cc2c[nH]c3ccccc23)C(=O)N[C@@H](CC(=O)O)C1=O [Example 1400] ({CH2CO}-FWD[NHexGly]Y[Nle]N[Orn][NMeNle][Ahp(2)]P[Tle]SCN-OH; thioether N-14) | 14.1 nM |
| CCCCCCN1CC(=O)N[C@@H](Cc2ccc(O)cc2)C(=O)N[C@@H](CCCC)C(=O)N[C@@H](CC(=O)O)C(=O)N[C@@H](CCCN)C(=O)N(C)[C@@H](CCCC)C(=O)N[C@@H](CCCCC)C(=O)N2CCC[C@H]2C(=O)N[C@@H](C(C)(C)C)C(=O)N[C@@H](CO)C(=O)N[C@H](C(=O)N[C@@H](CC(N)=O)C(=O)O)CSCC(=O)N[C@@H](Cc2ccccc2)C(=O)N[C@@H](Cc2c[nH]c3ccccc23)C(=O)N[C@@H](CC(=O)O)C1=O [Example 1401] ({CH2CO}-FWD[NHexGly]Y[Nle]D[Orn][NMeNle][Ahp(2)]P[Tle]SCN-OH; thioether N-14) | 20.2 nM |
| CCCCCCN1CC(=O)N[C@@H](Cc2ccc(O)cc2)C(=O)N[C@@H](CCCC)C(=O)N[C@@H](CC(N)=O)C(=O)N[C@@H](CCCNC(=N)N)C(=O)N(C)[C@@H](CCCC)C(=O)N[C@@H](CCCCC)C(=O)N2CCC[C@H]2C(=O)N[C@@H](C(C)(C)C)C(=O)N[C@@H](CO)C(=O)N[C@H](C(=O)N[C@@H](CC(N)=O)C(=O)O)CSCC(=O)N[C@@H](Cc2ccccc2)C(=O)N[C@@H](Cc2c[nH]c3ccccc23)C(=O)N[C@@H](CC(=O)O)C1=O [Example 1402] ({CH2CO}-FWD[NHexGly]Y[Nle]NR[NMeNle][Ahp(2)]P[Tle]SCN-OH; thioether N-14) | 33.8 nM |
| CCCCCCN1CC(=O)N[C@@H](Cc2ccc(O)cc2)C(=O)N[C@@H](CCCC)C(=O)N[C@@H](CC(=O)O)C(=O)N[C@@H](CCCNC(=N)N)C(=O)N(C)[C@@H](CCCC)C(=O)N[C@@H](CCCCC)C(=O)N2CCC[C@H]2C(=O)N[C@@H](C(C)(C)C)C(=O)N[C@@H](CC(=O)O)C(=O)N[C@H](C(=O)N[C@@H](CC(N)=O)C(=O)O)CSCC(=O)N[C@@H](Cc2ccccc2)C(=O)N[C@@H](Cc2c[nH]c3ccccc23)C(=O)N[C@@H](CC(=O)O)C1=O [Example 1403] ({CH2CO}-FWD[NHexGly]Y[Nle]DR[NMeNle][Ahp(2)]P[Tle]DCN-OH; thioether N-14) | 32 nM |

Second part, the molecule after the results:

| IC50 | Structure (SMILES) |
| --- | --- |
| 25.2 nM | CCCCCCN1CC(=O)N[C@@H](Cc2ccc(O)cc2)C(=O)N[C@@H](CCCC)C(=O)N[C@@H](CC(N)=O)C(=O)N[C@@H](CCCNC(N)=O)C(=O)N(C)[C@@H](CCCC)C(=O)N[C@@H](CCCCC)C(=O)N2CCC[C@H]2C(=O)N[C@@H](C(C)(C)C)C(=O)N[C@@H](CO)C(=O)N[C@H](C(=O)NCC(N)=O)CSCC(=O)N[C@@H](Cc2ccccc2)C(=O)N[C@@H](Cc2c[nH]c3ccccc23)C(=O)N[C@@H](CC(=O)O)C1=O [Example 1390] ({CH2CO}-FWD[NHexGly]Y[Nle]N[Cit][NMeNle][Ahp(2)]P[Tle]SCG-NH2; thioether N-14) |
| 36.3 nM | CCCCCCN1CC(=O)N[C@@H](Cc2ccc(O)cc2)C(=O)N[C@@H](CCCC)C(=O)N[C@@H](CC(N)=O)C(=O)N[C@@H](CCCNC(=N)N)C(=O)N(C)[C@@H](CCCC)C(=O)N[C@@H](CCCCC)C(=O)N2CCC[C@H]2C(=O)N[C@@H](C(C)(C)C)C(=O)N[C@@H](CO)C(=O)N[C@H](C(=O)NCC(N)=O)CSCC(=O)N[C@@H](Cc2ccccc2)C(=O)N[C@@H](Cc2c[nH]c3ccccc23)C(=O)N[C@@H](CC(=O)O)C1=O [Example 1391] ({CH2CO}-FWD[NHexGly]Y[Nle]NR[NMeNle][Ahp(2)]P[Tle]SCG-NH2; thioether N-14) |
| 38.3 nM | CCCCCCN1CC(=O)N[C@@H](Cc2ccc(O)cc2)C(=O)N[C@@H](CCCC)C(=O)N[C@@H](CC(=O)O)C(=O)N[C@@H](CCCNC(=N)N)C(=O)N(C)[C@@H](CCCC)C(=O)N[C@@H](CCCCC)C(=O)N2CCC[C@H]2C(=O)N[C@@H](C(C)(C)C)C(=O)N[C@@H](CC(=O)O)C(=O)N[C@H](C(=O)NCC(N)=O)CSCC(=O)N[C@@H](Cc2ccccc2)C(=O)N[C@@H](Cc2c[nH]c3ccccc23)C(=O)N[C@@H](CC(=O)O)C1=O [Example 1392] ({CH2CO}-FWD[NHexGly]Y[Nle]DR[NMeNle][Ahp(2)]P[Tle]DCG-NH2; thioether N-14) |
| 34.8 nM | CCCCCCN1CC(=O)N[C@@H](Cc2ccc(O)cc2)C(=O)N[C@@H](CCCC)C(=O)N[C@@H](CC(N)=O)C(=O)N[C@@H](CCCN)C(=O)N(C)[C@@H](CCCC)C(=O)N[C@@H](CCCCC)C(=O)N2CCC[C@H]2C(=O)N[C@@H](C(C)(C)C)C(=O)N[C@@H](CC(=O)O)C(=O)N[C@H](C(=O)NCC(N)=O)CSCC(=O)N[C@@H](Cc2ccccc2)C(=O)N[C@@H](Cc2c[nH]c3ccccc23)C(=O)N[C@@H](CC(=O)O)C1=O [Example 1394] ({CH2CO}-FWD[NHexGly]Y[Nle]N[Orn][NMeNle][Ahp(2)]P[Tle]DCG-NH2; thioether N-14) |
| 48.6 nM | CCCCCCN1CC(=O)N[C@@H](Cc2ccc(O)cc2)C(=O)N[C@@H](CCCC)C(=O)N[C@@H](CC(=O)O)C(=O)N[C@@H](CCCNC(=N)N)C(=O)N(C)[C@@H](CCCC)C(=O)N[C@@H](CCCCC)C(=O)N2CCC[C@H]2C(=O)N[C@@H](C(C)(C)C)C(=O)N[C@@H](CO)C(=O)N[C@H](C(=O)NCC(N)=O)CSCC(=O)N[C@@H](Cc2ccccc2)C(=O)N[C@@H](Cc2c[nH]c3ccccc23)C(=O)N[C@@H](CC(=O)O)C1=O [Example 1395] ({CH2CO}-FWD[NHexGly]Y[Nle]DR[NMeNle][Ahp(2)]P[Tle]SCG-NH2; thioether N-14) |
| 26.8 nM | CCCCCCN1CC(=O)N[C@@H](Cc2ccc(O)cc2)C(=O)N[C@@H](CCCC)C(=O)N[C@@H](CC(N)=O)C(=O)N[C@@H](CCCNC(=N)N)C(=O)N(C)[C@@H](CCCC)C(=O)N[C@@H](CCCCC)C(=O)N2CCC[C@H]2C(=O)N[C@@H](C(C)(C)C)C(=O)N[C@@H](CC(=O)O)C(=O)N[C@H](C(=O)NCC(N)=O)CSCC(=O)N[C@@H](Cc2ccccc2)C(=O)N[C@@H](Cc2c[nH]c3ccccc23)C(=O)N[C@@H](CC(=O)O)C1=O [Example 1396] ({CH2CO}-FWD[NHexGly]Y[Nle]NR[NMeNle][Ahp(2)]P[Tle]DCG-NH2; thioether N-14) |
